± gives the standard deviation of the averaged measurements.
Assays:
Test in all cases: relative viability vs DMSO control (72 h) (fraction); higher = more viable cells
SW982 = test system: SW982
How it was run: (§1)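 Sarcoma cell lines were seeded in 384-well plates at densities chosen for 80–90% confluence, then 24 h later given 2.5 µl of serially diluted compound drawn from source plates spanning 10 mM to 0.0002 mM. They were held 72 h at 37 °C, 5% CO2, with 0.1% DMSO vehicle and a 5 µM positive control included. Relative viability was read with ATPLite as percent growth and averaged over up to triplicate wells. Rescaling placed full at 1 and none at 0.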

SK-ES-1 = test system: SK-ES-1
How it was run: as §1

RD = test system: RD
How it was run: as §1

KHOS-240S = test system: KHOS-240S
How it was run: as §1

RD-ES = test system: RD-ES
How it was run: as §1

CN1CC[C@@H](NC(=O)Nc2ccc(C#N)cc2)C[C@@H]1c1nc2ccccc2[nH]1 [Glasdegib]
relative viability
Settings	KHOS-240S	RD	RD-ES	SK-ES-1	SW982
0.00017 µM	1.04 ± 0.028	1.02 ± 0.021	0.9823 ± 0.0076	1 ± 0.042	0.988 ± 0.014
0.00051 µM	1.061 ± 0.0035	1.03 ± 0.05	0.963 ± 0.028	1.03 ± 0.049	0.993 ± 0.022
0.00152 µM	1.08 ± 0.015	1.05 ± 0.065	0.9569 ± 0.0078	1 ± 0.021	1 ± 0.017
0.00457 µM	1.08 ± 0.042	1.04 ± 0.065	0.968 ± 0.028	1.02 ± 0.018	1.03 ± 0.024
0.01372 µM	1.06 ± 0.05	1.02 ± 0.044	0.96 ± 0.025	1.01 ± 0.062	1 ± 0.01
0.04115 µM	1.06 ± 0.018	0.99 ± 0.021	0.923 ± 0.013	0.965 ± 0.034	0.971 ± 0.07
0.1235 µM	1.05 ± 0.019	0.988 ± 0.016	0.924 ± 0.017	0.944 ± 0.086	1.004 ± 0.0054
0.3704 µM	1.065 ± 0.0064	0.983 ± 0.057	0.926 ± 0.025	0.975 ± 0.046	0.985 ± 0.025
1.111 µM	1.05 ± 0.015	1.02 ± 0.095	0.924 ± 0.046	0.944 ± 0.057	1.02 ± 0.022
3.333 µM	1.05 ± 0.017	1 ± 0.08	0.934 ± 0.059	0.77 ± 0.025	1.02 ± 0.015
10 µM	1.03 ± 0.043	1.06 ± 0.038	0.891 ± 0.059	0.696 ± 0.024	0.992 ± 0.04

CCC(=O)N1CC[C@H](Nc2ncnc3c2CN(c2cnc(OC)c(C(F)(F)F)c2)CC3)C1 [Leniolisib]
relative viability
Settings	KHOS-240S	RD	RD-ES	SK-ES-1	SW982
0.00017 µM	1.03 ± 0.017	1.08 ± 0.06	0.985 ± 0.038	1.04 ± 0.07	1.02 ± 0.014
0.00051 µM	1.05 ± 0.023	1.09 ± 0.018	1.034 ± 0.0094	1.02 ± 0.087	1.05 ± 0.021
0.00152 µM	1.05 ± 0.04	1.11 ± 0.014	1.03 ± 0.022	1.07 ± 0.11	1.05 ± 0.018
0.00457 µM	1.06 ± 0.056	1.11 ± 0.029	1.03 ± 0.029	1.02 ± 0.058	1.05 ± 0.021
0.01372 µM	1.05 ± 0.045	1.12 ± 0.034	1 ± 0.021	1.04 ± 0.05	1.06 ± 0.049
0.04115 µM	1.02 ± 0.019	1.09 ± 0.015	1.02 ± 0.0046	1.05 ± 0.12	1.06 ± 0.062
0.1235 µM	1.017 ± 0.0085	1.09 ± 0.028	0.989 ± 0.029	1.01 ± 0.061	1.02 ± 0.032
0.3704 µM	0.997 ± 0.021	1.11 ± 0.026	0.958 ± 0.013	1 ± 0.059	1.02 ± 0.043
1.111 µM	0.975 ± 0.028	1.09 ± 0.032	0.908 ± 0.014	0.999 ± 0.073	0.985 ± 0.033
3.333 µM	0.9 ± 0.045	1.05 ± 0.034	0.856 ± 0.022	0.898 ± 0.075	0.836 ± 0.049
10 µM	0.8026 ± 0.0076	0.886 ± 0.015	0.709 ± 0.03	0.741 ± 0.071	0.678 ± 0.02

Source: the supplement of paper PMC10883282
